One series can be described thus: pKa of Compound 1. The series is classed as physicochemical.
The nature of series [1]: Equilibrium solubility of Compound 1 (HPLC). The series is classed as physicochemical. Particulars: for solubility thermodynamic: thermodynamic from solid, pH 7.0.
The conditions of series [2]: in vivo.
The next series relates to red blood cells. In words: Hemolytic testing in rats after intravenous administration (hemoglobin in urine, Hemastix reagent strips). The series is classed as in vivo, rat. More on the design: key: Hemastix scale: 0=negative, 1=non-hemolyzed trace … 6=large+++. Particulars: 1-2 min slow-hand bolus, 10 mg/mL drug in 22% Solutol HS15, pH 7.0. The source says:
The term “hemolysis” as used herein means destruction of red blood cells which leads to the release of hemoglobin from within the red blood cells into the blood plasma. Hemolysis can be measured by methods well known in the art, e.g., Hemastix® reagent strips (Bayer Corp., Elkhart, Ind.) which detect blood in urine. The
Hemastix® reagent strips turn from yellow to dark green depending upon the amount of hemoglobin found in the urine. The Hemastix® scale is as follows: 0=negative, 1=non-hemolyzed trace, 3=hemolyzed trace, 4=small+, 5=moderate++, and 6=large+++.
Urine samples from the rats were assessed for hemolysis using Hemastix® reagent strips (No. 2190, Bayer Corp., Elkhart Ind.). […] The Hemastix® reagent strips detect the peroxide-like activity of hemoglobin. The strips turn from yellow to dark green depending upon the amount of hemoglobin found in the urine. The Hemastix® scale is as follows: 0=negative, 1=non-hemolyzed trace, 3=hemolyzed trace, 4=small+, 5=moderate++, and 6=large+++.
The methodology for this study was to administer (into the tail vein of a rat) each formulation over 15 minutes by intravenous infusion using an infusion pump or to administer the formulation within two minutes by bolus route using a syringe. Urine was tested for the presence of free hemoglobin using the pooled urine collection method at the six-hour interval. For the six hour pooled urine collection, rats were dosed and placed in a metabolism cage. Six hour post dose, the rats were euthanized by carbon dioxide over-inhalation, and the urine sample was collected. A minimum of five subjects were tested for each formulation and the urine samples were analyzed for hemolysis using Hemastix® reagent strips as indicated in Comparative Example 2.
[…] If the rat voided any urine in the cage, the urine was analyzed using Hemastix® reagent strips to determine the presence of hemoglobinuria.
The methodology for this example was to administer each formulation over 15 minutes by i.v. infusion using an infusion pump or to administer the formulations within 2 minutes by bolus injection using a syringe and delivering the formulation into the tail vein of a rat. Urine was tested by dipstick for the presence of free hemoglobin using the pooled urine collection method at the 6-hour interval.

SMILES strings stand for the structures. Values after ≈ are worked out from the molar mass of the structure shown. Like-named read-outs stand apart in the source and are kept apart here.

As usually defined, the pKa is the pH at which an ionisable group is half protonated. By solubility (thermodynamic) is commonly meant solubility found after equilibrating the solid with the medium. Usually solubility stands for the concentration that dissolves in the medium under given conditions.

In turn, `C[C@@H](OC[C@@]1(c2ccccc2)CC[C@]2(CCC(=O)N2)CN1)c1cc(C(F)(F)F)cc(C(F)(F)F)c1` [Compound 1, (5S,8S)-8-[{(1R)-1-(3,5-Bis-(trifluoromethyl)phenyl)-ethoxy}-methyl]-8-phenyl-1,7-diazaspiro[4.5]decan-2-one] displayed a pKa in “pKa of Compound 1” of 6.9. Also, the thermodynamic solubility in series [1] (16% Captisol (sulfobutyl ether beta-cyclodextrin), aqueous with cosolvent or surfactant or cyclodextrin, 16% Captisol) was less than 0.006 mg/mL; in series [1] (aqueous with cosolvent or surfactant or cyclodextrin, 20% Solutol), roughly 50 mg/mL (≈ 99.9 mM). Moreover, the solubility in series [1] (22% Solutol, aqueous with cosolvent or surfactant or cyclodextrin) is 50 mg/mL (≈ 99.9 mM); in series [1] (pH 7.4, aqueous buffer, read-out: solubility at the physiological pH of 7.4), less than 0.004 mg/mL. For the same molecule, the “time at which half concentration is achieved” value in series [2] was “around 180 hrs”. For the same molecule, the “Hemolysis (Female rats)” value worked out at 1 with red blood cells (10 mg/kg, 15 min); 1 with red blood cells (10 mg/kg, 30 min); 0 in the series with red blood cells (10 mg/kg, 60 min); 3 with red blood cells (20 mg/kg, 15 min); 0 with red blood cells (20 mg/kg, 30 min); 0 in the series on red blood cells (20 mg/kg, 60 min). The “Hemolysis (Female rats)” value is given as 3 in the series with red blood cells (30 mg/kg, 15 min); 2 in the series with red blood cells (30 mg/kg, 30 min); 0 with red blood cells (30 mg/kg, 60 min). In addition, the “Hemolysis (Male rats)” value with red blood cells (10 mg/kg, 15 min) amounted to 3; in the series with red blood cells (10 mg/kg, 30 min), 0; in the series with red blood cells (10 mg/kg, 60 min) it was 0; in the series with red blood cells (20 mg/kg, 15 min) it was 3; in the series with red blood cells (20 mg/kg, 30 min), 3; in the series with red blood cells (20 mg/kg, 60 min), 0. For the same molecule, the “Hemolysis (Male rats)” value was found to be 3 in the series with red blood cells (30 mg/kg, 15 min); 0 in the series on red blood cells (30 mg/kg, 30 min); 0 with red blood cells (30 mg/kg, 60 min).
